7 compounds from BindingDB's records for doi:10.3109/14756366.2012.715287 (Atatürk University, 2013) can be followed below.

This assay addresses Serum paraoxonase/arylesterase 1 (Homo sapiens, UniProt P27169). As to the kind of experiment: Enzyme Activity Assay. On the procedure: The enzyme assay was based on the estimation of p-nitrophenol at 412 nm. Paraoxonase activity was determined spectrophotometrically using the same procedure in our previous studies [Ekinci et al., Eur. J. Pharmacol., 617:84-89]. One enzyme unit was defined as the amount of enzyme that catalyzes the hydrolysis of 1 μmol of substrate at 25°C.

The structures appear in SMILES notation.

Serum paraoxonase/arylesterase 1, sequence (P27169 whole entry): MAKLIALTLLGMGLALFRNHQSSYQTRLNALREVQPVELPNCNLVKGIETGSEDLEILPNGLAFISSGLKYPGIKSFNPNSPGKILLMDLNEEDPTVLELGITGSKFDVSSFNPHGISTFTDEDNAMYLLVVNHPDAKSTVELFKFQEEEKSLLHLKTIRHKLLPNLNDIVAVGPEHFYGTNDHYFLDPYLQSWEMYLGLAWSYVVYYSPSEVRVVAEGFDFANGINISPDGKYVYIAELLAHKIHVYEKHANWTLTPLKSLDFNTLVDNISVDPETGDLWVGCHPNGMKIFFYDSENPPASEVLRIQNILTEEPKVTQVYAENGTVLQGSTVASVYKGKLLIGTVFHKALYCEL

In general, IC50 refers to the concentration needed to halve the response being measured. High values mean weaker potency, low ones greater potency. In turn, `O=C(c1ccc(O)c(O)c1)c1c(O)c(O)cc(Br)c1Br` [(2,3-Dibromo-5,6-dihydroxyphenyl)(3,4-dihydroxyphenyl)methanone (10)] displayed an IC50 of 832 µM.
For the compound `COc1ccc(C(=O)c2c(Br)c(Br)cc(OC)c2OC)cc1OC` [(2,3-dibromo-5,6-dimethoxyphenyl)(3,4-dimethoxyphenyl)methanone (7)], the concentration for half-maximal inhibition (IC50) was 174 µM.
On to `COc1ccc(C(=O)c2cccc(OC)c2OC)cc1OC` [(2,3-dimethoxyphenyl)(3,4-dimethoxyphenyl)methanone (6)], for which half-maximal inhibition (IC50) was put at 1210 µM.
Under `O=C(c1cc(O)c(O)cc1Br)c1c(O)c(O)cc(Br)c1Br` [(2-Bromo-4,5-dihydroxyphenyl)(2,3-dibromo-5,6-dihydroxyphenyl)methanone (11)] stands 1110 µM; under `COc1cc(Br)c(C(=O)c2c(Br)c(Br)cc(OC)c2OC)cc1OC` [(2-Bromo-4,5-dimethoxyphenyl)(2,3-dibromo-5,6-dimethoxyphenyl)methanone (8)], 123 µM; under `O=C(c1cc(O)c(O)c(Br)c1)c1c(O)c(O)cc(Br)c1Br` [(3-Bromo-4,5-dihydroxyphenyl)(2,3-dibromo-5,6-dihydroxyphenyl)methanone (12)], 701 µM.
`COc1cc(C(=O)c2c(Br)c(Br)cc(OC)c2OC)cc(Br)c1OC` [(3-Bromo-4,5-dimethoxyphenyl)(2,3-dibromo-5,6-dimethoxyphenyl)methanone (9)] yielded an IC50 of 125 µM.
